For data set [1], the system named is human donor corneal endothelial cells. Description: Apoptosis and necrosis assays on donor endothelial cell-Descemet membrane tissue after storage. The format is cell-based. As to conditions: for corneal endothelial cell necrosis, change vs control: vs diluent control. The protocol:
Human corneal tissue pairs were obtained by Iowa Lions Eye Bank (ILEB) from nondiabetic donors 60-75 years old and stored in Optisol GS (Bausch+Lomb, Irvine, Calif.) at 4° C. following procurement in accordance with Eye Bank Association of America and ILEB policies and procedures. […] Descemet membrane and endothelial cell punches were collected and mounted onto the bottom of a Seahorse assay plate (cells facing upward). Mitochondrial respiration was assayed by measuring oxygen consumption using the Seahorse XFe24 Extracellular Flux Analyzer (Agilent Technologies, Santa Clara, Calif.) over 120 minutes (9-minute intervals). Punches were labeled with a nuclear counterstain (DAPI) and remaining tissues were mounted onto slides and labeled with 488A-Annexin V, Ethidium Homodimer III, and Hoechst 33342 (Apoptotic, Necrotic, and Healthy Cells Quantification Kit; Biotium, Fremont, Calif.) to assay cell health. Nuclei were counted in each punch to normalize respirometry data. Immunohistochemistry densitometry was measured using ImageJ software.
(§1) Human corneal tissue pairs were obtained by Iowa Lions Eye Bank (ILEB) from nondiabetic donors 60-75 years old and stored in Optisol GS (Bausch+Lomb, Irvine, Calif.) at 4° C. following procurement in accordance with Eye Bank Association of America and ILEB policies and procedures. For 5 days prior to testing, but within 9 days of procurement, one stored tissue from a corneal pair was treated with 10 μM CoQ10, while the mate tissue was treated with diluent only as a control. Descemet membrane and endothelial cell punches were collected and mounted onto the bottom of a Seahorse assay plate (cells facing upward). Mitochondrial respiration was assayed by measuring oxygen consumption using the Seahorse XFe24 Extracellular Flux Analyzer (Agilent Technologies, Santa Clara, Calif.) over 120 minutes (9-minute intervals). Punches were labeled with a nuclear counterstain (DAPI) and remaining tissues were mounted onto slides and labeled with 488A-Annexin V, Ethidium Homodimer III, and Hoechst 33342 (Apoptotic, Necrotic, and Healthy Cells Quantification Kit; Biotium, Fremont, Calif.) to assay cell health. Nuclei were counted in each punch to normalize respirometry data. Immunohistochemistry densitometry was measured using ImageJ software.
as §1, with “100” for “10”, “palmitate-BSA,” for “CoQ10,”, “BSA” for “diluent”
In brief, excess EDM tissues from surrounding the punches used for metabolic assays were incubated with 488A-Annexin V, Ethidium Homodimer III, and Hoechst 33342 (Apoptotic, Necrotic, and Healthy Cells Quantification Kit; Biotium, Fremont, Calif.) to detect the apoptotic, necrotic, and entire cell populations, respectively. […]

Data set [2] can be described thus: Stability in water (yellowish discoloration = oxidation to ubiquinone). The format is physicochemical. As to conditions: shaken in water for 24 h. The procedure:
• γ-CD was dissolved in water at different concentrations, and ubiquinol was added to it while stirring (protected from light). • Stirring continues for 2-5 days. Finally, the formed precipitate (complex) was collected and dried. • Yellow discoloration, which indicates the oxidation of ubiquinol following the formation of the yellow oxidized form (ubiquinone), was noticeable at different degrees depending on the stirring time.
In FIG. 11, the image on the right is 5 mg of CoQ10 added to 10 ml H2O and shaken for 24 hours. […] The instability of ubiquinol in water after both free drug or the complex was stirred in water for 24 h explains why the kneading method that involves the minimum amount of water was chosen form preparation.

Where [3] appears, read: 10 μM ubiquinol vs diluent-treated mate cornea, 5 days, n = 9.
Where [4] appears, read: 10 μM ubiquinol, 5 days in Optisol-GS, n = 9 matched tissues.
The mark [5] stands for this setting: palmitate-BSA treated tissues (100 μM), 5 days, n = 8 matched tissues.

On to ubiquinol, for which the “protection against apoptosis and necrosis” value in data set [1] (1 μM coQ10, tissues in storage) is recorded as “protected not only against apoptosis, but also against necrosis”. For the same substance, the “apoptosis reduced in treated cells” value in data set [1] (10 μM CoQ10, 5 days in Optisol GS, vs diluent control (p=0.09)) worked out at 29%. Further, the “corneal endothelial cell necrosis, change vs control” value is on record as “not changed” in data set [1] (10 μM CoQ10, 5 days in Optisol GS, listed as CoQ10); “did not change” in data set [1] (10 μM CoQ10, 5 days in Optisol GS, listed as co-Q10); “did not change” in data set [1] (10 μM CoQ10, 5 days in Optisol GS, listed as coenzyme Q10). Moreover, the “% Apoptotic, Mean Ratio: Ubiquinol/Control (95% CI)” value in data set [1] (setting [3]) was “Ratio: 0.90 (0.63, 1.29)”. The “% Necrotic, Mean Ratio: Ubiquinol/Control (95% CI)” value in data set [1] (setting [3]) was “Ratio: 1.02 (0.91, 1.15)”. The figures for the “% Apoptotic, Mean (SD)” value in data set [1] (setting [4]) and in data set [1] (setting [5]) were 0.0040 (0.0047) % and 0.00053 (0.00062) %, respectively. Also, the “% Necrotic, Mean (SD)” value in data set [1] (setting [4]) is reported as 0.0263 (0.0070) %; in data set [1] (setting [5]), 0.0628 (0.0532) %. Further, in data set [1] (Example 13: 10 μM ubiquinol, 5 days in Optisol-GS (p=0.517)), the “apoptosis, change vs controls” value is recorded as “no significant change”. Further, the “cell necrosis, change vs controls” value in data set [1] (Example 13: 10 μM ubiquinol, 5 days in Optisol-GS (p=0.694)) is recorded as “no significant change”. Moreover, in data set [1] (ubiquinol supplemented corneal storage medium vs non-supplemented), the “CEC cell death in storage” value is “decreased”. Besides, the “stability in water (discoloration)” value in data set [2] is given as “yellowish discoloration was noticeable”.

These data come from patent US20220249399A1, “COMPOSITION COMPRISING AN ANTI-OXIDANT TO PRESERVE CORNEAL TISSUE” (University of lowa Research Foundation, priority 2019, published 2022).
